Experiment [1] deals with Poly [ADP-ribose] polymerase 1 (Homo sapiens, UniProt P09874). The experiment in a line: PARP Enzyme Inhibition Assay. The conditions noted are these: pH 8; 23 °C. On the procedure: (§1) To assess the inhibitory activity of novel inhibitors, the PARP enzyme assay was carried out in reaction mixture consisting of activated salmon testes DNA, [adenylate-32P]-NAD, recombinant PARP enzyme, and various concentrations of PARP inhibitors. The reaction mixture was incubated at room temperature for 15 min, and the reaction was terminated by adding trichloroacetic acid. The precipitate was transferred onto GF/B filter. After the filter was washed and dried, the radioactivity was determined by liquid scintillation counting. IC50 values were calculated from the concentration dependence of the inhibition curves by using computer-assisted non-linear regression analyses.
Poly [ADP-ribose] polymerase 1, sequence (P09874 whole entry): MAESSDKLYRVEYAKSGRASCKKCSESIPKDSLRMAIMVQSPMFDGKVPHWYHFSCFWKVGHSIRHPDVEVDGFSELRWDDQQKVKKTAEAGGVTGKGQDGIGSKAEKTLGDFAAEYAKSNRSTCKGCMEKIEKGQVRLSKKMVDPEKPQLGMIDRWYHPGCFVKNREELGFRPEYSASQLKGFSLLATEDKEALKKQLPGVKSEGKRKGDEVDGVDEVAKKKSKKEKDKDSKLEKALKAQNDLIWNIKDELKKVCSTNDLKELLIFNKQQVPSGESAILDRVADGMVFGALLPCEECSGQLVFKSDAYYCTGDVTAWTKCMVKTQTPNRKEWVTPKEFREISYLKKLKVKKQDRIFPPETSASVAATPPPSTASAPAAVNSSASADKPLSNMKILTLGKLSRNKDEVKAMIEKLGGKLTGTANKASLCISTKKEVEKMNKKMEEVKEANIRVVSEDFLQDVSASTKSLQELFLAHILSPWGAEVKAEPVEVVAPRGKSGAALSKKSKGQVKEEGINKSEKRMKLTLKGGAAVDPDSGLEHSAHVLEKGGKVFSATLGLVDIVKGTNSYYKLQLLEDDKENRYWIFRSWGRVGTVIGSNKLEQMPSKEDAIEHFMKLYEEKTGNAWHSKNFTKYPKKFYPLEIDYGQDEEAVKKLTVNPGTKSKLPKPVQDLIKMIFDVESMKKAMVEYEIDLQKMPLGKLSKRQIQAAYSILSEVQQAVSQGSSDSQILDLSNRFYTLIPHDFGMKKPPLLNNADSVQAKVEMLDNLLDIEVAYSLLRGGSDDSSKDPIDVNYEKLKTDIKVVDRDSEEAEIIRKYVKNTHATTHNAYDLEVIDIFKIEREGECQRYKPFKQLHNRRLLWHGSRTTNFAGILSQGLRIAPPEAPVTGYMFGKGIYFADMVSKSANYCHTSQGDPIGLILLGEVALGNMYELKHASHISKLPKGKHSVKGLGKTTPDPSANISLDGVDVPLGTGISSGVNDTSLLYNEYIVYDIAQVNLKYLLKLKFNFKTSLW

The target in experiment [2] is Poly [ADP-ribose] polymerase 2 (Mus musculus, UniProt O88554). The experiment is described as follows: PARP Enzyme Inhibition Assay. The conditions noted are these: 25 °C. On the procedure: as §1
Poly [ADP-ribose] polymerase 2, sequence (O88554 whole entry): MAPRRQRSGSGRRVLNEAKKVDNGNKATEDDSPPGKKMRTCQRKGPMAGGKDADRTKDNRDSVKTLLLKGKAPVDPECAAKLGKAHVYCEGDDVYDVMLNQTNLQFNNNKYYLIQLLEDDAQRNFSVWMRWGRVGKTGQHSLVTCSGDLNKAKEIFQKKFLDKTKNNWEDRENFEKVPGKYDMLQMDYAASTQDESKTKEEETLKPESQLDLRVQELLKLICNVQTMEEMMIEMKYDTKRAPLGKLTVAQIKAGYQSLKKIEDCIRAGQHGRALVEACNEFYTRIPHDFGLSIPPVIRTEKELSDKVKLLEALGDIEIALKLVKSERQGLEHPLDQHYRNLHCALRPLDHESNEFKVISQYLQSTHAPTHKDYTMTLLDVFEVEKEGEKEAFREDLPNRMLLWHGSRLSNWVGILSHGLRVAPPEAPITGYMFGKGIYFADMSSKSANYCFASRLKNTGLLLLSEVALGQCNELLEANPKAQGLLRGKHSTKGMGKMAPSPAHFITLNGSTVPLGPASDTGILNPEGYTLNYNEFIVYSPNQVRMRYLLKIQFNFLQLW

Structures are written as SMILES.

`COc1ccc(-c2cnc3cccc(C(N)=O)c3n2)cc1`: the IC50 in experiment [1] was 71 nM; in experiment [2], 8 nM.

Compound `O=c1[nH]c(=O)n(CCCCC2CC=C(c3ccccc3)CC2)c2cccc(F)c12` (stereo unspecified) [5-fluoro-1-[4-(4-phenylcyclohex-3-en-1-yl)butyl]-1,2,3,4-tetrahydroquinazoline-2,4-dione] had an IC50 in experiment [1] greater than 1000 nM.

Consider `O=c1[nH]c(=O)n(CCCCN2CC=C(c3ccccc3)CC2)c2ccccc12` [1-[4-(4-phenyl-1,2,3,6-tetrahydropyridin-1-yl)butyl]-1,2,3,4-tetrahydroquinazoline-2,4-dione], for which the IC50 in experiment [1] came out at 120 nM; in experiment [2], 70 nM.

In the case of `O=c1[nH]c(CCCN2CC=C(c3ccccc3)CC2)nc2cccc(Cl)c12` [5-Chloro-2-[3-(4-phenyl-3,6-dihydro-2H-pyridin-1-yl)-propyl]-3H-quinazolin-4-one], the IC50 in experiment [1] was determined as 68 nM; in experiment [2] it was 630 nM.

For the compound `N#Cc1ccc(-c2cnc3cccc(C(N)=O)c3n2)cc1`, the 50% inhibitory concentration (IC50) amounted to 101 nM in experiment [1] and 8 nM in experiment [2].

Regarding `O=c1[nH]nc(CCCCN2CC=C(c3ccccc3)CC2)c2ccccc12` [4-[4-(4-Phenyl-3,6-dihydro-2H-pyridin-1-yl)-butyl]-2H-phthalazin-1-one], the IC50 in experiment [1] stood at 120 nM; in experiment [2], 90 nM.

With `Cc1cccc2c(=O)[nH]c(CCCN3CC=C(c4ccc(F)cc4)CC3)nc12`, the IC50 in experiment [1] turned out to be 16 nM; in experiment [2], 167 nM.

In the case of `O=c1[nH]c2ccc(CCCN3CC=C(c4ccccc4)CC3)cc2c2ccccc12`, the IC50 came out at 82 nM in experiment [1] and 84 nM in experiment [2].

Regarding `N#Cc1ccc(C2=CCN(CCCc3nc4c(Cl)cccc4c(=O)[nH]3)CC2)cc1`, the IC50 is 3 nM in experiment [1] and 87 nM in experiment [2].

With `NC(=O)c1cccc2ncc(-c3ccc(Cl)cc3)nc12` [3-(4-chlorophenyl)quinoxaline-5-carboxamide], the IC50 stood at 33 nM in experiment [1] and 7 nM in experiment [2].

Consider `NC(=O)c1cccc2ncc(-c3ccc(C(F)(F)F)cc3)nc12`, for which the values for the IC50 in experiment [1] and in experiment [2] were 118 nM and 11 nM, respectively.

As for `O=c1[nH]c(CCCN2CC=C(c3ccc(F)cc3)CC2)nc2c(Cl)cccc12` [8-chloro-2-{3-[4-(4-fluorophenyl)-1,2,3,6-tetrahydropyridin-1-yl]propyl}-3,4-dihydroquinazolin-4-one], in experiment [2], the IC50 was 500 nM.

For the compound `NC(=O)c1cccc2ncc(-c3ccc(N)cc3)nc12` [3-(4-aminophenyl)quinoxaline-5-carboxamide], the IC50 in experiment [1] is 87 nM; in experiment [2] it was 9 nM.

As for `NC(=O)c1cccc2ncc(-c3ccccc3)nc12` [3-phenylquinoxaline-5-carboxamide], the IC50 in experiment [1] stood at 131 nM; in experiment [2] it was 14 nM.

`NC(=O)c1cccc(N)c1` displayed an IC50 in experiment [2] of 9810 nM.

For `O=c1[nH]c(CCCN2CC=C(c3ccccc3)CC2)nc2c(Cl)cccc12`, the IC50 came out at 23 nM in experiment [1] and 610 nM in experiment [2].

For `O=c1[nH]nc(CCCCN2CC=C(c3ccc(F)cc3)CC2)c2ccccc12` [4-{4-[4-(4-fluorophenyl)-1,2,3,6-tetrahydropyridin-1-yl]butyl}-1,2-dihydrophthalazin-1-one], the values for the IC50 in experiment [1] and in experiment [2] were 49 nM and 84 nM, respectively.

As to `O=c1[nH]c(CCCN2CC=C(c3ccccc3)CC2)nc2ccccc12` [2-[3-(4-phenyl-1,2,3,6-tetrahydropyridin-1-yl)propyl]-3,4-dihydroquinazolin-4-one], the results for the IC50 in experiment [1] and in experiment [2] were 21 nM and 608 nM, respectively.

In the case of `O=c1[nH]c(CCCN2CCN(c3ccc(Cl)cc3)CC2)nc2ccccc12` [2-{3-[4-(4-chlorophenyl)piperazin-1-yl]propyl}-3,4-dihydroquinazolin-4-one], the IC50 amounted to 11 nM in experiment [1] and 300 nM in experiment [2].

Take `Cc1nc2cccc(Cl)c2c(=O)[nH]1` [5-chloro-2-methyl-3,4-dihydroquinazolin-4-one]: it took 660 nM to reach half-maximal inhibition in experiment [2] (IC50).

Source of the values: BindingDB's records for doi:10.1016/j.bmc.2005.09.061 (Fujisawa Pharmaceutical, 2006).
